From patent US5677282A (Proscript, Inc., priority 1995, dated 1997)
Several values for one entry are separate records, joined by “and”; a condition that tells them apart may be missing. Equal values may be shown once.

Key:
Assay type in all cases: biochemical
[1] = biological target: human neutrophil collagenase (Homo sapiens, UniProt P22894); assay: Assay of human neutrophil collagenase inhibition activity; conditions: human neutrophil collagenase 2 nM, H-150 buffer pH 7.4; read-out: Ki(app)
Procedure, shortened: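 Human neutrophil collagenase (2 nM) in HEPES/NaCl/CaCl2 buffer, pH 7.4, was followed by fluorescence of coumarin peptide substrate hydrolysis over about 100-200 s. Inhibitor was added stepwise until 30-70% rate reduction. Ki was calculated assuming simple competitive inhibition with substrate far below Km.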

[2] = biological target: stromelysin (Homo sapiens, UniProt P08254); assay: Assay of stromelysin inhibition activity (fluorogenic coumarin peptide substrate); conditions: trypsin-activated stromelysin 2 nM, H-150 buffer pH 7.4, room temperature; read-out: Ki(app)
Sequence of stromelysin (P08254 100-477): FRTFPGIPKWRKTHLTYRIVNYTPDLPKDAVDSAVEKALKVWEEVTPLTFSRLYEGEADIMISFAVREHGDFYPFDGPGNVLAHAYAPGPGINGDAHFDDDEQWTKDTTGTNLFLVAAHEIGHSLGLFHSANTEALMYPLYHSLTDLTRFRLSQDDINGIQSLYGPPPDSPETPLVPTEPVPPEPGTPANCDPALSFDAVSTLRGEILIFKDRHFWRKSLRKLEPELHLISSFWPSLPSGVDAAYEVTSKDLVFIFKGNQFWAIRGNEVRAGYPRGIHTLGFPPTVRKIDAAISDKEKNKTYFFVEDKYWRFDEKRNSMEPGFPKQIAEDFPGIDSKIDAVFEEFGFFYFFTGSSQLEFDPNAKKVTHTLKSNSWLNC
Procedure, shortened: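 Human stromelysin trypsin-activated, then used at 2 nM in HEPES/NaCl/CaCl2 buffer pH 7.4 at room temperature with coumarin peptide substrate. Initial hydrolysis rate followed by fluorescence (ex 328/em 393 nm); inhibitor added stepwise to 30-70% inhibition, Ki derived assuming simple competitive inhibition with substrate far below Km.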

[3] = biological target: 92 kD gelatinase (Homo sapiens, UniProt P14780); assay: Assay of 92 KD gelatinase inhibition activity; conditions: 92KD gelatinase 25 pM, H-150 buffer pH 7.4; read-out: Ki(app)
Sequence of 92 kD gelatinase (P14780 107-707): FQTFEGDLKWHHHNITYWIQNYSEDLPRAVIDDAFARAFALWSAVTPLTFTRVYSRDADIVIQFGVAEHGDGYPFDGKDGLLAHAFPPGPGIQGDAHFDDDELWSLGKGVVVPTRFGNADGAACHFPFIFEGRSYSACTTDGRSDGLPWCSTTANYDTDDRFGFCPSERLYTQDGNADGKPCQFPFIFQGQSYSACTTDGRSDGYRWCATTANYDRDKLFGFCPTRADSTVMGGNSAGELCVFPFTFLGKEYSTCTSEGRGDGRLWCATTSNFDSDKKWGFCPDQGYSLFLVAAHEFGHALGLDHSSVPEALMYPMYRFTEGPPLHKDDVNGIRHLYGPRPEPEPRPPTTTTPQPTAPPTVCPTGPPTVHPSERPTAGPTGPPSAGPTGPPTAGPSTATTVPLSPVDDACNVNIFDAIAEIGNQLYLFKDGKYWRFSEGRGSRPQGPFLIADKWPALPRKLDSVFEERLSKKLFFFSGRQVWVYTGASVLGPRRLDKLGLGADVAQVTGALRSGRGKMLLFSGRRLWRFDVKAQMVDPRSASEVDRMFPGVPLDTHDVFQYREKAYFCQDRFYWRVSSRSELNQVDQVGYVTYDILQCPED
Procedure, shortened: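 Pro-92 kD gelatinase activated with 1 mM p-aminophenyl mercuric acetate, 24 h at 37 °C. Assay: 25 pM enzyme in H-150 buffer pH 7.4 with coumarin peptide substrate; hydrolysis rate followed by fluorescence over 100-200 s. Inhibitor titrated in until 30-70% inhibition; Ki calculated assuming simple competitive inhibition with substrate well below Km.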

Sequence of human neutrophil collagenase (P22894 101-467): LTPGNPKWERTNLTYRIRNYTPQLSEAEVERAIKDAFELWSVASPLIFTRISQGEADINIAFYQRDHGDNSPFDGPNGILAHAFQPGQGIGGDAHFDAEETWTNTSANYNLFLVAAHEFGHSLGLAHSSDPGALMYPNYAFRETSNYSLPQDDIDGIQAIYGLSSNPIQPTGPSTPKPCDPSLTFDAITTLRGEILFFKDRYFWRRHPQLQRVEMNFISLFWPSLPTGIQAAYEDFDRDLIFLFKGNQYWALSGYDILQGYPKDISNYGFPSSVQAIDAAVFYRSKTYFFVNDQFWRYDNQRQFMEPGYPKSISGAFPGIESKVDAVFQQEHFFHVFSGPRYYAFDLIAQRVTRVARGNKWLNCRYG

Ki [2] | Ki [3] | Structure (SMILES) | Ki [1]
169 nM | 2.3 nM | CC(C)C[C@H](NC(=O)[C@H](Cc1ccccc1)NC(=O)OCc1ccccc1)C(=O)Nc1n[nH]c(=S)s1 [5-(N-benzyloxycarbonyl-phenylalanyl-leucylamino)-1,3,4-thiadiazole-2-thione] | 
279 nM | 1.5 nM | CC(C)[C@H](NC(=O)[C@H](Cc1ccccc1)NC(=O)OCc1ccccc1)C(=O)Nc1n[nH]c(=S)s1 [5-(N-benzyloxycarbonyl-phenylalanyl-valylamino)-1,3,4-thiadiazole-2-thione] | 4.8 nM and 7.8 nM

Structure (SMILES) | Ki [2] | Ki [3] | Ki [1]
O=C(N[C@@H](Cc1ccc(OCc2ccccc2)cc1)C(=O)N[C@H](C(=O)Nc1n[nH]c(=S)s1)c1ccccc1)OCc1ccccc1 | 39 nM and 64 nM |  | 1.57 nM
